Test results from patent publication US10246453B2, “Benzenesulfonamide compounds and their use as therapeutic agents” (Xenon Pharmaceuticals Inc., priority 2016, dated 2019).
Structures can show the parent of a compound that is named as a salt.

Assays:
NaV1.6 = NaV1.6 (Homo sapiens (Human), UniProt Q9UQD0); test: Sodium Influx Assay (Flux), NaV1.6; details: read-out: Flux NaV1.6 IC50; Trex HEK293 cells, ANG2 dye; arithmetic mean
NaV1.1 = NaV1.1 (Homo sapiens (Human), UniProt P35498); test: Sodium Influx Assay (Flux), NaV1.1; assay type: cell-based; details: Trex HEK293 cells, ANG2 dye; arithmetic mean
NaV1.5 = NaV1.5 (Homo sapiens (Human), UniProt Q14524); test: Sodium Influx Assay (Flux), NaV1.5; details: read-out: Flux NaV1.5 IC50; Trex HEK293 cells, ANG2 dye; arithmetic mean
Sequence of NaV1.5 (Q14524 other isoform, or with tags, fused parts or gaps): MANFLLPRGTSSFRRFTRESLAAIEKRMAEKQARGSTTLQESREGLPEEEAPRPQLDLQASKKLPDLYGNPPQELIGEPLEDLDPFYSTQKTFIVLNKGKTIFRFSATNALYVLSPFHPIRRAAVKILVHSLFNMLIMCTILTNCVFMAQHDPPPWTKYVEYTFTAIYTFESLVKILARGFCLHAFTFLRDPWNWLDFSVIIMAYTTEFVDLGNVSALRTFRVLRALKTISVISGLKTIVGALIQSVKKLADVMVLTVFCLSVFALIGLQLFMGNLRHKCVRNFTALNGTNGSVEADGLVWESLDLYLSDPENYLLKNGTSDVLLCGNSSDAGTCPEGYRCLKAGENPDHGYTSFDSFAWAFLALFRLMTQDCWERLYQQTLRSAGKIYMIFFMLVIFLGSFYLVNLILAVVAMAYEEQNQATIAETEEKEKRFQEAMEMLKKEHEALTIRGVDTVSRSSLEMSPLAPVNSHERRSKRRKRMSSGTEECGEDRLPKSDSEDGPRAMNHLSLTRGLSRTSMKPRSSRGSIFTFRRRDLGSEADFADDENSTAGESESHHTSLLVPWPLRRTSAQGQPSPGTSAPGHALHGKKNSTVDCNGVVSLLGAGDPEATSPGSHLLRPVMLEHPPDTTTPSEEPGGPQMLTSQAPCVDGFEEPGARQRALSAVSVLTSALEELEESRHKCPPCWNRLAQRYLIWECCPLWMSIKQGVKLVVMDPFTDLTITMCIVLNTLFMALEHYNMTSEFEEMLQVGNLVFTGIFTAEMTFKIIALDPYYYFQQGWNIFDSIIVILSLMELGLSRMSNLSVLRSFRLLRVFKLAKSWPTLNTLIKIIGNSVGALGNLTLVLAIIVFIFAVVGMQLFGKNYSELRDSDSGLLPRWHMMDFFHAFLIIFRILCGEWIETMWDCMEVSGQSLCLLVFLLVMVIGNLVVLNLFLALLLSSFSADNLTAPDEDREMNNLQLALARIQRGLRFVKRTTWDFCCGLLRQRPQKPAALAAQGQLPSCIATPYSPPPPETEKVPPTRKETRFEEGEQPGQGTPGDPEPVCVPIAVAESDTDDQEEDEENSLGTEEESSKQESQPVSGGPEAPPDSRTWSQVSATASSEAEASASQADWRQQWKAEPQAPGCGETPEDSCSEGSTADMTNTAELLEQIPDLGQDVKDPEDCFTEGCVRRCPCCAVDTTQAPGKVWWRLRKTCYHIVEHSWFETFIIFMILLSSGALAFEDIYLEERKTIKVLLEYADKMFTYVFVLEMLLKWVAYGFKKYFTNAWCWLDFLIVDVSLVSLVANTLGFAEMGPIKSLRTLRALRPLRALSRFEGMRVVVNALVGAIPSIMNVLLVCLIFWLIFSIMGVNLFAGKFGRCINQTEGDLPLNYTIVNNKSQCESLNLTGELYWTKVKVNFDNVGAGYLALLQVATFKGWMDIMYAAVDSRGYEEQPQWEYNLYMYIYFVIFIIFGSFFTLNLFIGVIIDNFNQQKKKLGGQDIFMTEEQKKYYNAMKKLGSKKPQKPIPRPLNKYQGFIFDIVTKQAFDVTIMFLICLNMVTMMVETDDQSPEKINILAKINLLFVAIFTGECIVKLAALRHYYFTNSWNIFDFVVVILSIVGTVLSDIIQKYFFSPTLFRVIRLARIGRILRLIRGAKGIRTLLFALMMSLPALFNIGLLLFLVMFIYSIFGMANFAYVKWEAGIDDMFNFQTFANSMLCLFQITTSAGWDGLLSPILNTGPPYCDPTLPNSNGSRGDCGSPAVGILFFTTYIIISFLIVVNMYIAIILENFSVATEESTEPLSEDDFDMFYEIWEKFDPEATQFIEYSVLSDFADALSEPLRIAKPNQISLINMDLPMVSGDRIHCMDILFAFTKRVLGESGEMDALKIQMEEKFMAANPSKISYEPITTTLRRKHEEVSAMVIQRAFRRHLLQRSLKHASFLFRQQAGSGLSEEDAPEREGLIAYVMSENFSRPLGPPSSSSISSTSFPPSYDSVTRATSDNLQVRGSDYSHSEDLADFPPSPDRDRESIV

| SMILES | IC50 (NaV1.6) [µM] | IC50 (NaV1.1) [µM] | IC50 (NaV1.5) [µM] |
| --- | --- | --- | --- |
| CN(c1cc(F)c(S(=O)(=O)Nc2cscn2)cc1Cl)[C@H]1CCN(Cc2ccc(C(F)(F)F)o2)C1 [Example 164, (S)-5-chloro-2-fluoro-4-(methyl(1-((5-(trifluoromethyl)furan-2-yl)methyl)pyrrolidin-3-yl)amino)-N-(thiazol-4-yl)benzene-sulfonamide 2,2,2-trifluoroacetate] | 4.45 | 6.03 | 12.9 |
| CN(c1cc(F)c(S(=O)(=O)Nc2cscn2)cc1Cl)[C@H]1CCN(Cc2ccc(F)cc2)C1 [Example 180, (S)-5-chloro-2-fluoro-4-((1-(4-fluorobenzyl)-pyrrolidin-3-yl)(methyl)amino)-N-(thiazol-4-yl)benzene-sulfonamide] | 5.29 | 16.8 | 25.4 |
| CN(c1ccc(S(=O)(=O)Nc2cscn2)c(F)c1Cl)[C@H]1CCN(Cc2ccccc2)C1 [Example 328, (S)-4-((1-benzylpyrrolidin-3-yl)(methyl)amino)-3-chloro-2-fluoro-N-(thiazol-4-yl)benzenesulfonamide 2,2,2-trifluoroacetate] | 0.786 | 16.3 | 18.3 |
| Cc1cc(S(=O)(=O)Nc2cscn2)ccc1N(C)[C@H]1CCN(Cc2cc(F)ccc2F)C1 [Example 285, (S)-4-((1-(2,5-difluorobenzyl)pyrrolidin-3-yl)(methyl)amino)-3-methyl-N-(thiazol-4-yl)benzenesulfonamide 2,2,2-trifluoroacetate] | 0.389 | 4.37 | 2.71 |
| CN(c1cc(F)c(S(=O)(=O)Nc2cscn2)cc1Cl)[C@H]1CCN(Cc2cccc(F)c2)C1 [Example 212, (S)-5-chloro-2-fluoro-4-((1-(3-fluorobenzyl)pyrrolidin-3-yl)(methyl)amino)-N-(thiazol-4-yl)benzenesulfonamide] | 2.14 | 10.5 | 18.9 |
| CC1(C)CN(Cc2cc(Cl)cc(Cl)c2)CCC1Oc1ccc(S(=O)(=O)Nc2ncns2)cc1Cl (stereo not drawn) [Example 4, 3-chloro-4-((1-(3,5-dichlorobenzyl)-3,3-dimethylpiperidin-4-yl)oxy)-N-(1,2,4-thiadiazol-5-yl)benzenesulfonamide 2,2,2-trifluoroacetate] | > 30 | > 30 | 11 |
| Cc1cc(C)cc(CN2CC[C@@H](Oc3ccc(S(=O)(=O)Nc4ncns4)cc3Cl)C2)c1 [Example 98, (R)-3-chloro-4-(1-(3,5-dimethylbenzyl)pyrrolidin-3-yloxy)-N-(1,2,4-thiadiazol-5-yl)benzenesulfonamide 2,2,2-trifluoroacetate] | 7.53 | 21.9 | > 30 |
| Cc1cc(S(=O)(=O)Nc2cscn2)c(F)cc1N(C)[C@H]1CCN(CCC(C)(C)C)C1 [Example 125, (S)-4-((1-(3,3-dimethylbutyl)-pyrrolidin-3-yl)(methyl)amino)-2-fluoro-5-methyl-N-(thiazol-4-yl)benzenesulfonamide formate] | 2.32 | 14.7 | > 30 |
| Cc1c(OC2CCN(Cc3ccccc3)CC2)cc(F)c(S(=O)(=O)Nc2nccs2)c1F [Example 223, 4-((1-benzylpiperidin-4-yl)oxy)-2,6-difluoro-3-methyl-N-(thiazol-2-yl)benzenesulfonamide 2,2,2-trifluoroacetate] | 0.009 | 2.58 | 23.2 |
| O=S(=O)(Nc1nccs1)c1cc(Cl)c(O[C@@H]2C[C@H]3CC[C@@H](C2)N3Cc2cccc(Cl)c2)cc1F [Example 18, 5-chloro-4-(((1R,3s,5S)-8-(3-chlorobenzyl)-8-azabicyclo[3.2.1]octan-3-yl)oxy)-2-fluoro-N-(thiazol-2-yl)benzenesulfonamide 2,2,2-trifluoroacetate] | 1.06 | > 30 | > 30 |
| CC1(Oc2ccc(S(=O)(=O)Nc3nccs3)cc2Cl)CCN(Cc2ccccc2)CC1 [Example 19, 4-((1-benzyl-4-methylpiperidin-4-yl)oxy)-3-chloro-N-(thiazol-2-yl)benzenesulfonamide] | 3.17 | 4.96 | 4.68 |
| CN(c1cc(F)c(S(=O)(=O)Nc2cscn2)c(F)c1)[C@H]1CCN(Cc2ccccc2)C1 [Example 286, (S)-4-((1-benzylpyrrolidin-3-yl)(methyl)amino)-2,6-difluoro-N-(thiazol-4-yl)benzenesulfonamide formate] | 2.22 | 2.27 | 1.99 |
| O=S(=O)(Nc1nccs1)c1ccc(OC2CCN(Cc3ccc(F)cc3)CC2)c(Cl)c1 [Example 22, 3-chloro-4-((1-(4-fluorobenzyl)piperidin-4-yl)oxy)-N-(thiazol-2-yl)benzenesulfonamide 2,2,2-trifluoroacetate] | 3.64 | 14.8 | 16.1 |

More lines, in order of falling IC50 (NaV1.6), values ahead:

| IC50 (NaV1.6) [µM] | IC50 (NaV1.1) [µM] | SMILES | IC50 (NaV1.5) [µM] |
| --- | --- | --- | --- |
| 1.6 | 6.75 | Cc1cc(S(=O)(=O)Nc2cscn2)c(F)cc1N(C)[C@H]1CCN(CCc2ccccc2)C1 [Example 115, (S)-2-fluoro-5-methyl-4-(methyl(1-phenethylpyrrolidin-3-yl)amino)-N-(thiazol-4-yl)benzenesulfonamide] | 19.3 |
| 1.03 | 9.89 | CN(c1cc(F)c(S(=O)(=O)Nc2cscn2)cc1Cl)[C@H]1CCN(Cc2cccc(N3CCC3)n2)C1 [Example 317, (S)-4-((1-((6-(azetidin-1-yl)pyridin-2-yl)methyl)pyrrolidin-3-yl)(methyl)amino)-5-chloro-2-fluoro-N-(thiazol-4-yl)benzenesulfonamide 2,2,2-trifluoroacetate] | 8.12 |
| 0.936 | 29.6 | C[C@H](c1ccccc1)N1CCC(Oc2ccc(S(=O)(=O)Nc3cscn3)c(F)c2F)CC1 [Example 313, (R)-2,3-difluoro-4-((1-(1-phenylethyl)piperidin-4-yl)oxy)-N-(thiazol-4-yl)benzenesulfonamide formate] | > 30 |
| 0.828 | > 30 | Cc1csc(CN2CC[C@H](N(C)c3cc(F)c(S(=O)(=O)Nc4cscn4)cc3C)C2)n1 [Example 129, (S)-2-fluoro-5-methyl-4-(methyl(1-((4-methylthiazol-2-yl)methyl)pyrrolidin-3-yl)amino)-N-(thiazol-4-yl)benzenesulfonamide] | > 30 |
| 0.738 | 29.7 | C=Cc1c(O[C@H]2CCN(Cc3ccccc3)C2)cc(F)c(S(=O)(=O)Nc2cscn2)c1F [Example 275, (S)-4-((1-benzylpyrrolidin-3-yl)oxy)-2,6-difluoro-N-(thiazol-4-yl)-3-vinylbenzenesulfonamide 2,2,2-trifluoroacetate] | 17.6 |
| 0.209 | 12.3 | Cc1c(N(C)[C@H]2CCN(Cc3cccc(C(F)F)c3)C2)ccc(S(=O)(=O)Nc2cscn2)c1F [Example 323, (S)-4-((1-(3-(difluoromethyl)benzyl)-pyrrolidin-3-yl)(methyl)amino)-2-fluoro-3-methyl-N-(thiazol-4-yl)benzenesulfonamide] | 13.6 |
| 0.021 | 7.97 | CN(c1ccc(S(=O)(=O)Nc2ncns2)cc1Cl)[C@H]1CCN(Cc2cccc(Cl)c2)C1 [Example 30, (S)-3-chloro-4-((1-(3-chlorobenzyl)pyrrolidin-3-yl)(methyl)amino)-N-(1,2,4-thiadiazol-5-yl)benzenesulfonamide] | 18.7 |
